Test results reported in PubChem BioAssay (NCI).
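Briefly, cells in 96-well plates were exposed to five compound concentrations for 48 h, and endpoints were estimated by linear interpolation. Abbreviation: GI50, concentration required for 50% inhibition of growth. TGI marks complete inhibition of growth.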

Key:
Assay in all cases: NCI anticancer screen, dose series, 48 h
XF 498 CNS = system: XF 498 CNS
RXF-631 renal = system: RXF-631 renal
DLD-1 colon = system: DLD-1 colon
KM20L2 colon = system: KM20L2 colon
LXFL 529 NSCLC = system: LXFL 529 NSCLC
HOP-18 NSCLC = system: HOP-18 NSCLC
MDA-N = system: MDA-N

Row | Compound | TGI (XF 498 CNS) [µM] | TGI (RXF-631 renal) [µM] | TGI (DLD-1 colon) [µM] | TGI (KM20L2 colon) [µM] | TGI (LXFL 529 NSCLC) [µM] | TGI (HOP-18 NSCLC) [µM] | TGI (MDA-N) [µM] | GI50 (MDA-N) [µM] | GI50 (KM20L2 colon) [µM]
1 | Cc1ccc(NC(=O)CC2SC(=Nc3cccc(Cl)c3C)NC2=O)cc1 (stereo not drawn) | > 100 | > 100 | > 100 | > 100 | > 100 | – | – | – | –
2 | COc1cc(/C=C(\C)c2ccc3c(c2)OCO3)cc(OC)c1OC | – | > 100 | > 100 | > 100 | 96 | > 100 | – | – | –
3 | CC(C)c1ccc2c(c1)CCC1C(C)(CN)CCCC21C (stereo not drawn) | – | – | – | – | – | – | 2.86 | – | –
4 | O=C(O)c1cc(C(=O)C(=O)c2cc(C(=O)O)c(O)c3ccccc23)c2ccccc2c1O | – | – | – | – | – | – | > 100 | – | –
5 | CN(CC(=O)O)S(=O)(=O)c1ccc(Cl)cc1 | > 100 | – | > 100 | > 100 | > 100 | > 100 | – | – | –
6 | NC(=S)N/N=C/c1cn(CCCl)c2ccccc12 | – | – | > 100 | – | > 100 | > 100 | – | – | –
7 | OCC(O)COc1ccc(F)cc1 (stereo not drawn) | > 100 | – | > 100 | > 100 | > 100 | > 100 | – | – | –
8 | N#CCC(=O)N/N=C(/C(=O)Nc1ccccc1)C1C(=O)N(c2ccccc2)N=C1N (stereo not drawn) | > 100 | > 100 | > 100 | > 100 | > 100 | > 100 | – | – | –
9 | c1ccc2c(CNCCCN3CCN(CCCNCc4cccc5ccccc45)CC3)cccc2c1 | 3.17 | 2.41 | 3.69 | 3.18 | 3.17 | 18.7 | – | – | –
10 | COC(=O)C(=O)C(C(=O)C(=O)Nc1ccccc1C(N)=O)c1nc2ccc([N+](=O)[O-])cc2[nH]c1=O (stereo not drawn) | > 100 | > 100 | > 100 | > 100 | > 100 | > 100 | – | – | –
11 | CC[C@@]1(O)C(=O)OCc2c1cc1n(c2=O)Cc2cc3c(OC)cccc3nc2-1 | 0.876 | 1.45 | 19.3 | > 23.6 | > 23.1 | > 100 | > 100 | > 100 | –
12 | COc1cc(C)cc(C(=O)OCc2ccccc2)c1C1=C(Cl)C(=O)C(Cl)=CC1=O | – | – | – | – | – | – | > 10 | – | –
13 | CCOC(=O)c1cc2c(OC)cc(OC)cc2oc1=O | – | – | – | – | – | – | > 100 | – | –
14 | O=[N+]([O-])c1cccc(C=NC23CC4CC(CC(C4)C2)C3)c1 | > 100 | – | > 100 | > 100 | > 100 | > 100 | – | – | –
15 | O=P1(O)c2ccccc2CSCc2ccccc21 | – | – | – | – | – | – | > 100 | – | –
16 | CCOC(=O)c1sc(Nc2cc(Cl)ccc2Cl)nc1C | > 100 | > 100 | > 100 | > 100 | > 100 | > 100 | – | – | –
17 | CCCC(c1cc(C(C)(C)C)c(O)cc1C)c1cc(C(C)(C)C)c(O)cc1C | – | – | – | – | – | – | 3.91 | – | –
18 | O=C([CH-]C(=O)c1ccccc1)c1ccccc1.O=C([CH-]C(=O)c1ccccc1)c1ccccc1.[CH2-]CCC.[CH2-]CCC.[Sn+4] | – | – | – | 3.11 | – | – | – | – | 1.57
19 | CC[C@H]1[C@@H](C)C=C[C@@H](C)N1S(=O)(=O)c1ccc(C)cc1 | 42.4 | 30.4 | – | > 100 | > 100 | – | – | – | –

Row | Compound | TGI (XF 498 CNS) [µM] | TGI (RXF-631 renal) [µM] | TGI (DLD-1 colon) [µM] | TGI (KM20L2 colon) [µM] | TGI (LXFL 529 NSCLC) [µM] | TGI (HOP-18 NSCLC) [µM] | TGI (MDA-N) [µM] | GI50 (MDA-N) [µM] | GI50 (KM20L2 colon) [µM]
20 | Cc1cc2c(=O)cc(-c3ccc(Cl)c(Cl)c3)oc2c(C(=O)O)c1C | > 100 | – | > 100 | > 100 | > 100 | > 100 | – | – | –
21 | COC(=O)CCC(=O)C(CC(=O)OC)C(=O)CCC(=O)NCCc1ccccc1 (stereo not drawn) | – | > 100 | – | > 100 | > 100 | > 100 | – | – | –
22 | S=C1NC(c2ccccc2)=NC(Cc2ccccc2)(c2ccccc2)N1c1ccccc1 (stereo not drawn) | – | > 100 | > 100 | > 100 | > 100 | > 100 | – | – | –
23 | CCC(CO)COC(=O)/C=C/C(=O)OCC(CC)CO (stereo not drawn) | > 100 | > 100 | > 100 | > 100 | > 100 | > 100 | – | – | –
24 | Cc1cc2c(=O)cc(-c3ccc(O)cc3)oc2c(C(=O)O)c1C | > 100 | – | > 100 | > 100 | > 100 | > 100 | – | – | –
25 | CN1C[C@@H]2CC(=O)CC[C@@H]2C[C@H]1C#N | > 100 | > 100 | > 100 | > 100 | > 100 | – | – | – | –
26 | Cc1ccc(S(=O)OC2c3ccccc3Cc3ccccc32)cc1 (stereo not drawn) | 30.3 | 40.2 | 58.5 | 47.2 | 31.1 | 59.4 | – | – | –
27 | Cc1cc2c(=O)cc(-c3ccc(Cl)cc3Cl)oc2c(C(=O)O)c1C | > 100 | – | > 100 | > 100 | > 100 | > 100 | – | – | –
28 | Cc1ccc(C)c(N2C(=O)C(=O)C(c3nc4ccccc4s3)C(=O)C2=O)c1 | – | – | > 100 | > 100 | > 100 | – | – | – | –
29 | Cc1cc(C)c2c(=O)cc(-c3ccc(F)cc3)[nH]c2n1 | – | – | – | – | – | – | 67.9 | 25 | –
30 | COC(=O)c1oc([N+](=O)[O-])c(-c2ccccc2)c1-c1ccccc1 | > 100 | > 100 | > 100 | > 100 | > 100 | > 100 | – | – | –
31 | Cn1cnc([N+](=O)[O-])c1Sc1nccn1-c1ccccc1 | > 100 | – | > 100 | > 100 | – | 54.3 | – | – | –
32 | CSc1nc(SC)c2c(C)cn(Cc3ccccc3)c2n1 | – | – | – | – | – | – | > 100 | – | –
33 | CC1=CC=C2C(C)(C)CC[C@@H]3OC(=O)[C@H]1[C@]23C | > 100 | > 100 | > 100 | > 100 | > 100 | > 100 | – | – | –
34 | COC1OC(CO)C(O)C(NC(=O)N(C)N=O)C1O (stereo not drawn) | > 100 | – | > 100 | > 100 | > 100 | > 100 | – | – | –
35 | O=C1C2=C(c3ccccc31)C(c1ccccc1Cl)NC(=S)N2 (stereo not drawn) | > 100 | – | > 100 | > 100 | > 100 | – | – | – | –
36 | C=CCC1=C2CCCCC2CCC1=O (stereo not drawn) | > 100 | > 100 | > 100 | – | > 100 | – | – | – | –
37 | CC(=O)OC1C(COC(N)=O)OC(n2c(-c3ccc(C)cc3)cc(-c3ccccc3)c(C#N)c2=O)C(OC(C)=O)C1OC(C)=O (stereo not drawn) | – | > 100 | > 100 | > 100 | > 100 | > 100 | – | – | –
38 | CCCCN(CCCC)C(=O)C(=O)C(C(=O)C(=O)OC)c1nc2ccccc2o1 (stereo not drawn) | > 100 | > 100 | > 100 | – | > 100 | > 100 | – | – | –
